From patent US20200131196A1 (Mount Tam Therapeutics, Inc., priority 2017, published 2020)
pEC50, pIC50: −log10 of the molar value.

Experiments:
[1] = test system: RKOE6; assay: OncoPanel cell proliferation assay, RKOE6; details: for pEC50 / GI50 / pIC50: Homo sapiens; for pEC50: RKOE6, read-out: Cell Count EC50; for GI50: RKOE6, read-out: Cell Count GI50; for pIC50: RKOE6, read-out: Cell Count IC50; for Cell Count Activity Area: RKOE6
Method: (§5) Cells were seeded into 384-well plates and incubated in a humidified atmosphere of 5% CO2 at 37° C. Compounds were added the day following cell seeding. At the same time, a time zero untreated cell plate was generated. After a 3-day incubation period, cells were fixed and stained to allow fluorescence imaging of nuclei. Compounds (1 mM stock solutions) were serially diluted in half-log steps from the highest test concentration (1 micromol), and assayed over 10 concentrations with a maximum assay concentration of 0.1% DMSO. Automated fluorescence microscopy was carried out using a Molecular Devices ImageXpress Micro XL high-content imager, and images were collected with a 4× objective. 16-bit TIFF images were acquired and analyzed with MetaXpress 5.1.0.41 software.
(§6) GI50 is the concentration needed to reduce the observed growth by half (midway between the curve maximum and the time zero value). […] In rare instances, values <0 or >10 may be observed. […] Curve-fitting, calculations, and report generation was performed using a custom data reduction engine and MathIQ based software (AIM).

[2] = test system: SHP-77; assay: OncoPanel cell proliferation assay, SHP-77; details: for pEC50 / GI50 / pIC50: Homo sapiens; for pEC50: SHP77, read-out: Cell Count EC50; for GI50: SHP77, read-out: Cell Count GI50; for pIC50: SHP77, read-out: Cell Count IC50; for Cell Count Activity Area: SHP-77
Method: as §5, §6

[3] = test system: SW579; assay: OncoPanel cell proliferation assay, SW579; format: cell-based, human; details: for pEC50: read-out: Cell Count EC50; for GI50: read-out: Cell Count GI50
Method: (§1) Cells were grown in RPMI 1640, 10% FBS, 2 mM L-alanyl-L-glutamine, 1 mM Na pyruvate, or a special medium. Cells were seeded into 384-well plates and incubated in a humidified atmosphere of 5% CO2 at 37° C. Compounds were added the day following cell seeding. At the same time, a time zero untreated cell plate was generated. After a 3-day incubation period, cells were fixed and stained to allow fluorescence imaging of nuclei. Compounds (1 mM stock solutions) were serially diluted in half-log steps from the highest test concentration ([…]), and assayed over 10 concentrations with a maximum assay concentration of 0.1% DMSO. Automated fluorescence microscopy was carried out using a Molecular Devices ImageXpress Micro XL high-content imager, and images were collected with a 4× objective. 16-bit TIFF images were acquired and analyzed with MetaXpress 5.1.0.41 software.
(§2) Cell proliferation was measured by the fluorescence intensity of an incorporated nuclear dye. The output is referred to as the relative cell count, where the measured nuclear intensity is transformed to percent of control (POC) using the following formula: […]
(§3) Cellular response parameters were calculated using nonlinear regression to a sigmoidal single-site dose response model:
(§4) EC50 is the test compound concentration at the curve inflection point or half the effective response (parameter C of the fitted curve solution). GI50 is the concentration needed to reduce the observed growth by half (midway between the curve maximum and the time zero value). “Cell Count Activity Area” is an estimate of the integrated area above the curve (Barretina, et al. The Cancer Cell Line Encyclopedia enables predictive modelling of anticancer drug sensitivity. Nature 483: 603-607). […] In rare instances, values <0 or >10 may be observed. […] Curve-fitting, calculations, and report generation was performed using a custom data reduction engine and MathIQ based software (AIM).

[4] = test system: U-138MG; assay: OncoPanel cell proliferation assay, U-138MG; format: cell-based, human; details: U-138MG; for pEC50: read-out: Cell Count EC50; for GI50: read-out: Cell Count GI50
Method: as §1, §2, §3, §4

[5] = test system: SNU-C2B; assay: OncoPanel cell proliferation assay, SNU-C2B; format: cell-based, human; details: for pEC50: read-out: Cell Count EC50; for GI50: read-out: Cell Count GI50
Method: as §1, §2, §3, §4

[6] = test system: CRO-AP2; assay: OncoPanel cell proliferation assay, CRO-AP2; format: cell-based, human; details: for GI50: read-out: Cell Count GI50
Method: as §1, §2, §3, §4

[7] = test system: MES-SA; assay: OncoPanel cell proliferation assay, MES-SA; format: cell-based, human; details: for GI50: read-out: Cell Count GI50
Method: as §1, §2, §3, §4

[8] = test system: TF-1; assay: OncoPanel cell proliferation assay, TF-1; format: cell-based, human; details: for GI50: read-out: Cell Count GI50; for pIC50: read-out: Cell Count IC50
Method: as §1, §2, §3, §4

[9] = test system: 786-O; assay: OncoPanel cell proliferation assay, 786-O; format: cell-based, human; details: 786-O; for pEC50: read-out: Cell Count EC50; for GI50: read-out: Cell Count GI50
Method: as §1, §2, §3, §4

[10] = test system: A101D; assay: OncoPanel cell proliferation assay, A101D; format: cell-based, human; details: for pEC50: read-out: Cell Count EC50; for GI50: read-out: Cell Count GI50
Method: as §1, §2, §3, §4

[11] = test system: Hs 729; assay: OncoPanel cell proliferation assay, Hs 729; format: cell-based, human; details: for GI50: read-out: Cell Count GI50; for pIC50: read-out: Cell Count IC50
Method: as §1, §2, §3, §4

[12] = test system: NCIH446; assay: OncoPanel cell proliferation assay, NCIH446; format: cell-based, human; details: for pEC50: NCI-H446, read-out: Cell Count EC50; for GI50: NCI-H446, read-out: Cell Count GI50
Method: as §1, §2, §3, §4

[13] = test system: CEM-C1; assay: OncoPanel cell proliferation assay, CEM-C1; format: cell-based, human; details: for GI50: read-out: Cell Count GI50; for pIC50: read-out: Cell Count IC50
Method: as §1, §2, §3, §4

[14] = test system: A431; assay: OncoPanel cell proliferation assay, A431; format: cell-based, human; details: for GI50: A-431, read-out: Cell Count GI50; for pIC50: A-431, read-out: Cell Count IC50
Method: as §1, §2, §3, §4

[15] = Homo sapiens, read-out: Cell Count IC50
[16] = Homo sapiens, read-out: Cell Count EC50

In the case of `CO[C@H]1C[C@@H]2CC[C@@H](C)[C@@](O)(O2)C(=O)C(=O)N2CCCC[C@H]2C(=O)O[C@H]([C@H](C)C[C@@H]2CC[C@@H](O)[C@H](OC)C2)CC(=O)[C@H](C)/C=C(\C)[C@@H](O)[C@@H](OC)C(=O)[C@H](C)C[C@H](C)/C=C/C=C/C=C/1C` [Rapamycin, reference compound], the pEC50 [1] was 10.08, the GI50 [1] was 0.356 nM and the pIC50 [1] was 8.97. For the same compound, the “Cell Count Activity Area” value [1] was 4.61, the pEC50 [2] was under 6.00 and the GI50 [2] was over 1000 nM. For the same compound, the pIC50 [2] was under 6.00, the “Cell Count Activity Area” value [2] was 1.13 and the “Cell Count Activity Area” value [3] was 4.77. For the same compound, the pEC50 ([3]; Homo sapiens) was 10.87, the GI50 ([3]; Homo sapiens) was 0.0539 nM and the pIC50 [3, 15] was under 6.00. For the same compound, the pEC50 ([4]; Homo sapiens, U138-MG) was 10.44, the GI50 ([4]; Homo sapiens, U138-MG) was 0.436 nM and the pIC50 ([4]; Homo sapiens, U138-MG, read-out: Cell Count IC50) was under 6.00. The “Cell Count Activity Area” value [4] was 3.14, the “Cell Count Activity Area” value [5] was 1.99 and the pEC50 ([5]; Homo sapiens) was under 6.00. The GI50 ([5]; Homo sapiens) was over 1000 nM, the pIC50 [5, 15] was under 6.00 and the “Cell Count Activity Area” value [6] was 6.22. For the same compound, the pEC50 [6, 16] was 9.92, the GI50 ([6]; Homo sapiens) was 0.155 nM and the pIC50 [6, 15] was 9.73. For the same compound, the “Cell Count Activity Area” value [7] was 5.39, the pEC50 [7, 16] was 9.76 and the GI50 ([7]; Homo sapiens) was 0.294 nM. For the same compound, the pIC50 [7, 15] was 9.38, the “Cell Count Activity Area” value [8] was 1.52 and the pEC50 [8, 16] was under 6.00. The GI50 ([8]; Homo sapiens) was over 1000 nM, the pIC50 ([8]; Homo sapiens) was under 6.00 and the “Cell Count Activity Area” value [9] was 4.17. The pEC50 ([9]; Homo sapiens, 786-0) was 9.64, the GI50 ([9]; Homo sapiens, 786-0) was 1.13 nM and the pIC50 ([9]; Homo sapiens, 786-0, read-out: Cell Count IC50) was 8.50. The “Cell Count Activity Area” value [10] was 2.92, the pEC50 ([10]; Homo sapiens) was 9.74 and the GI50 ([10]; Homo sapiens) was 0.721 nM. For the same compound, the pIC50 [10, 15] was under 6.00, the “Cell Count Activity Area” value [11] was 0.55 and the pEC50 [11, 16] was under 6.00. For the same compound, the GI50 ([11]; Homo sapiens) was over 1000 nM, the pIC50 ([11]; Homo sapiens) was under 6.00 and the “Cell Count Activity Area” value [12] was 1.69. For the same compound, the pEC50 ([12]; Homo sapiens) was under 6.00, the GI50 ([12]; Homo sapiens) was 44.4 nM and the pIC50 ([12]; Homo sapiens, NCI-H446, read-out: Cell Count IC50) was under 6.00. The “Cell Count Activity Area” value [13] was 3.61, the pEC50 [13, 16] was 9.58 and the GI50 ([13]; Homo sapiens) was 4.36 nM. The pIC50 ([13]; Homo sapiens) was under 6.00, the “Cell Count Activity Area” value [14] was 0.28 and the pEC50 ([14]; Homo sapiens, A-431, read-out: Cell Count EC50) was under 6.00. It also gave a GI50 ([14]; Homo sapiens) of over 1000 nM and a pIC50 ([14]; Homo sapiens) of under 6.00.
For `CN[C@@H]1C[C@H]2O[C@@](C)([C@@H]1OC)n1c3ccccc3c3c4c(c5c6ccccc6n2c5c31)C(=O)NC4` [Staurosporine, reference compound], the pEC50 [1] was 7.77, the GI50 [1] was 13.2 nM and the pIC50 [1] was 7.75. The “Cell Count Activity Area” value [1] was 3.96, the pEC50 [2] was 7.55 and the GI50 [2] was 24.2 nM. The pIC50 [2] was 7.51, the “Cell Count Activity Area” value [2] was 3.16 and the “Cell Count Activity Area” value [3] was 6.09. The pEC50 ([3]; Homo sapiens) was 9.28, the GI50 ([3]; Homo sapiens) was 0.506 nM and the pEC50 ([4]; Homo sapiens, U138-MG) was 9.07. For the same compound, the GI50 ([4]; Homo sapiens, U138-MG) was 1.05 nM, the “Cell Count Activity Area” value [4] was 3.72 and the “Cell Count Activity Area” value [5] was 3.80. The pEC50 ([5]; Homo sapiens) was 7.80, the GI50 ([5]; Homo sapiens) was 4.97 nM and the “Cell Count Activity Area” value [6] was 3.99. For the same compound, the GI50 ([6]; Homo sapiens) was 13.2 nM, the “Cell Count Activity Area” value [7] was 2.80 and the GI50 ([7]; Homo sapiens) was 13 nM. The “Cell Count Activity Area” value [8] was 3.31, the GI50 ([8]; Homo sapiens) was 10.9 nM and the pIC50 ([8]; Homo sapiens) was 7.92. The “Cell Count Activity Area” value [9] was 4.87, the pEC50 ([9]; Homo sapiens, 786-0) was 8.45 and the GI50 ([9]; Homo sapiens, 786-0) was 3.41 nM. The “Cell Count Activity Area” value [10] was 4.56, the pEC50 ([10]; Homo sapiens) was 8.15 and the GI50 ([10]; Homo sapiens) was 2.65 nM. The “Cell Count Activity Area” value [11] was 4.06, the GI50 ([11]; Homo sapiens) was 0.898 nM and the pIC50 ([11]; Homo sapiens) was 8.15. For the same compound, the “Cell Count Activity Area” value [12] was 2.81, the pEC50 ([12]; Homo sapiens) was 7.49 and the GI50 ([12]; Homo sapiens) was 16.8 nM. The “Cell Count Activity Area” value [13] was 4.28, the GI50 ([13]; Homo sapiens) was 7.27 nM and the pIC50 ([13]; Homo sapiens) was 8.04. The “Cell Count Activity Area” value [14] was 5.64, the GI50 ([14]; Homo sapiens) was 1.03 nM and the pIC50 ([14]; Homo sapiens) was 8.92.
